Results as given in patent US20140364316A1, “COMPOSITION FOR IMPROVING RESISTANCE TO ENVIRONMENTAL STRESS OF PLANT AND METHOD FOR IMPROVING RESISTANCE TO ENVIRONMENTAL STRESS OF PLANT” (The Shizuoka Chamber of Commerce and Industry, priority 2012, published 2014).

Columns and labels:
[1] = test system: Arabidopsis thaliana; assay: Evaluation of high temperature resistance 2 (35° C. for 1 hour and 45° C. for 2 hours); assay type: in vivo; details: 4th day after high temperature exposure
Protocol: As a sanguinarine reagent available on the market, a sanguinarine chloride hydrate (S5890-25MG manufactured by Sigma-Aldrich Japan K.K.) was obtained, the sanguinarine chloride hydrate was dissolved in water such that the sanguinarine concentration is 0.2 ppm, 2 ppm, or 20 ppm, and thus a sample liquid for each test plot was respectively prepared. In addition, as a sample liquid for the control plot, a 0.5% DMSO solution was prepared. By using these sample liquids, the following tests were performed.
Seeds of Arabidopsis thaliana were sowed and cultivated in a rockwool cube which had been saturated with a diluent of the HYPONEX (registered trademark) diluted by 1,000 times. The cultivation environment conditions were a cycle of [bright place for 16 hours+dark place for 8 hours], and a temperature of 22° C. On around the strain of Arabidopsis thaliana on the 14th day after the start of cultivation, a sample liquid composed of an aqueous sanguinarine solution that had been adjusted to various concentrations, and a 0.5% DMSO solution for the control plot were respectively applied dropwise using a dropper. The dropping amount was set to 100 μL per a plant body. Therefore, the sanguinarine amount applied per a plant body in each test plot was 0.02 μg in the test plot of 0.2 ppm, 0.2 μg in the test plot of 2 ppm, and 0.002 mg in the test plot of 20 ppm. After the dropping, under the initial cultivation environment conditions, the cultivation was continued for 2 days, then the room temperature was increased to 35° C., and exposure was performed for 1 hour in a bright place. Further, the room temperature was increased to 45° C., and high temperature exposure was performed for 2 hours in a dark place. […]
The state of the grown true leaves of Arabidopsis thaliana on the 4th day after the high temperature exposure under the above conditions was visually evaluated on a four level scale (index, 3: plant death, 2: partial plant death, 1: partial whitening, and 0: normal), and by assigning the values to the following equation, the average degree of damage was calculated. […]

[2] = test system: rats; details: Non Patent Literature 1; cited from earlier work

C[n+]1cc2c3c(ccc2c2ccc4cc5c(cc4c21)OCO5)OCO3 [sanguinarine]
average degree of damage with increasing dosage ([1]; 0.2 ppm to 20 ppm, FIG. 4): average degree of damage of Arabidopsis thaliana is reduced
growth (appearance and average degree of damage) compared with control plot (0.5% DMSO solution) ([1]; sanguinarine 0.2 ppm, 2 ppm or 20 ppm, 100 μL per plant body, FIG. 3, FIG. 4): growth was relatively favorable
average degree of damage ([1]; sanguinarine 20 ppm (0.002 mg per plant body)): less than 10%
physiological disorders after administration [2]: disorders of particular note were not observed
